These results are taken from PMC6815956, “Bioinspired Self-assembling Peptide Hydrogel with Proteoglycan-assisted Growth Factor Delivery for Therapeutic Angiogenesis” (Theranostics, 2019).

Series [1] can be described thus: Isothermal titration calorimetry, binding of HS to LRK. The conditions noted are these: ITC, 25 °C, PBS. The method, then:
Isothermal titration calorimetry (ITC) measurements were operated at 25 °C using a Micro ITC-200 microcalorimeter (GE Healthcare Life Sciences). The procedure was performed by titrating 0.35 mM HS from a syringe into 0.2 mM RADA16-LRK peptide solution loaded in a cell (both in PBS). In the next step, the data were integrated after background correction and fitted to a curve to obtain the binding constant.
To test the binding affinity between HS and […] peptide sequence, the molecular interactions between LRK sequence and HS were studied by ITC. Heat changes were recorded when the increments of HS solution were titrated drop by drop into functionalized peptide LRK solution. The binding constant Ka = [drawing 5] M^-1 was then obtained by approximating the integrated data into a fitting curve (Figure 4A).
(In general: Isothermal titration calorimetry measures the heat released or taken up as one component is titrated into another.)

The conditions of series [2]: compared with VEGF; ref [20]; cited from earlier work.
A short description of series [3]: GF release profile (ELISA). The conditions noted are these: from GAG-assisted QLK/LRK hydrogel, PBS w/ 0.05 % Tween 20, 1 % BSA, 37 °C, n = 6. It counts as physicochemical. As for the experimental part: (§1) At specific time intervals, the supernatants were collected, stored at -80 °C, and fresh release buffer was compensated. […] After adding the stop solution, the absorbance of the hydrogel at 450/540 nm was recorded by SpectraMax Plus 384 Microplate Reader.
(§2) It was the major challenge for scaffold-based GF delivery that how to maintain the release rate of incorporated GFs.

Series [4] in a line: GF loading efficiency (ELISA). The class given is physicochemical. To be noted: GF/HS complex in QLK/LRK peptide hydrogel, n = 6. The method, then: as §1, §2
For orientation: In an ELISA, binding on a coated surface is turned into a signal by an enzyme label.

The test system of the next series is HUVECs. The experiment in a line: Endothelial tube-like formation assay. The class given is cell-based, human. The conditions noted are these: GF released from hydrogel (200 ng, 3 days), 8 h, n = 8, vs basal medium. The method, then: To identify the angiogenic ability of released GFs in vitro, 80 µL of GF-depleted peptide hydrogel was introduced to a pre-cooled 96-well plate using chilled pipet tips. The gel was incubated for 30 min at 37 °C with 5 % CO2 to induce gelation. [drawing 4] HUVECs were first seeded on GF-depleted peptide hydrogel with 100 μL of culture medium and incubated for 8 h. […] Finally, the differentiations of HUVECs were observed periodically for 8 h under an inverted phase contrast microscope. Angiogenesis Analyzer ImageJ (NIH) was employed for quantification and the images were taken in ten random fields per sample.
Figure 5 The human umbilical vein endothelial cells (HUVECs) tube-like formation assay. […] (B) The original images were analyzed by Angiogenesis Analyzer for ImageJ (NIH), and the quantified result of total vessels length, total meshes area, total branches intervals were calculated (all the values were normalized with the analyzed area). […] Error bars show ± S.D. for total n = 8.

The nature of series [5]: In vitro disintegration in PBS (ninhydrin). It counts as physicochemical. The conditions noted are these: 2 % (w/v) hydrogel, 37 °C, ninhydrin 570 nm, n = 6; for total disintegration in PBS: 35 days; for disintegration in PBS: first three days. As for the experimental part:
(§3) The 2 % (w/v) RADA16-QLK and RADA16-LRK peptide solutions were mixed in a volume ratio of 3:1, and then introduced into a self-made cylinder mold. PBS buffer or cell culture medium was further added to trigger sol-gel transition. For the crosslinking process, the self-assembled cylindrical hydrogel was soaked into mTG solution (20 U/mL PBS) for 12 h at 38 °C. 40 µL of peptide hydrogel was transferred into a 96-well plate followed by 200 µL of PBS added to each well and incubated at 37 °C. At predetermined time points (3, 12, 24, 72, 168, 336, 504, 672, and 840 h), the supernatant was completely removed by syringe and replenished with fresh PBS. The collected supernatant was then stored at -80 °C for further tests. Ninhydrin reagent solution was employed to quantify the disintegrated peptide amino acid sequences of the hydrogel according to manufacturer's protocols. After the addition of 95 % ethanol to stop the reaction, the absorbance of the hydrogel at 570 nm was measured by a SpectraMax Plus 384 Microplate Reader.
To evaluate the stability of the peptide hydrogel in PBS buffer, Ninhydrin reagent solution was used to quantify the disintegration rate of peptide hydrogel in vitro. […] After this initial period of rapid disintegration, the kinetics slowed down. […] The disintegration rate of hydrogel was slower in the crosslinking group when compared with that in the non-crosslinking group during the investigative time period. Next, we are interested in figuring out if different culture condition will result in different peptide disintegration rate. Thus, another group of peptides incubated in cell culture medium was also conducted for comparison.

Series [6] in a line: Shear recovery (continuous step strain). The class given is physicochemical. The conditions noted are these: 1 % strain 60 s, 50 % strain 30 s, three cycles, 25 °C, n = 6. As for the experimental part:
(§4) The mechanical properties of the hydrogel scaffold were measured using a rheometer (Anton Paar, US). Measurements for the dynamic oscillatory frequency sweep (0.1-100 Hz) were performed at 1% strain amplitude and 25 °C. Shear recovery (1 % strain for 60 s, 50 % strain for 30 s, 1 % strain for 60 s) was conducted for three cycles at 25 °C. All measurements were performed on a 25-mm cone plate and the Anton Paar Rheometer software was used for analysis.
(§5) To test the mechanical stability and stiffness of the peptide hydrogel, frequency sweep and shear recovery measurements were conducted. […] The storage modulus (G') of QLK hydrogel increased from 1000 Pa to 5000 Pa, while the G' of QLK/LRK hydrogel increased from 400 Pa to 2500 Pa (Figure 3A-B). At least a five-fold enhancement in rheological stiffness and the mechanical properties of QLK-functionalized hydrogel were adjustable with mTG treatment. The concentration of transglutaminase also had influence on the mechanical properties of the hydrogel. Basically, the storage modulus (G') of the hydrogel was increased with the increase of mTG concentration. It was measured at pressure levels of 1 kPa, 1.5 kPa, 3 kPa, 5 kPa with respect to the concentrations of 0 U/mL, 5 U/mL, 10 U/mL, 20 U/mL.

Series [7] is described as follows: In vitro disintegration in cell culture medium. The class given is physicochemical. To be noted: 2 % (w/v) hydrogel, with and without mTG (20 U/mL), n = 6. As for the experimental part:
as §3
To evaluate the stability of the peptide hydrogel in PBS buffer, Ninhydrin reagent solution was used to quantify the disintegration rate of peptide hydrogel in vitro. […] After this initial period of rapid disintegration, the kinetics slowed down. […]

Series [8] is described as follows: Circular dichroism spectroscopy (secondary structure). It counts as physicochemical. To be noted: 0.05 % (w/v). The method, then: Circular dichroism (CD) spectra were collected on a CD Spectrometer Model 410 (AVIV Biomedical Inc.) to explore the secondary structure of SAPs. The cuvette quartz cell's path length was 1mm with a wavelength range between 190-260 nm at ambient temperature. The 0.05 % (w/v) RADA16-QLK, RADA16-LRK, and HS solution were allowed to store at 4 °C overnight to ensure complete self-assembly before measurement.
(§6) TEM images were obtained to identify the morphological change of nanofiber microstructure before and after enzymatic crosslinking. […] From the findings of TEM and AFM images, the interwoven nanofibers with diameters of 10-20 nm and pore sizes between 10-200 nm were similar to natural ECM fibers in both appearances and scales (Figure 2B-E).
Background: Circular dichroism is the unequal absorption of left and right circularly polarised light.

Series [9] can be described thus: Oscillatory rheology, frequency sweep. The class given is physicochemical. To be noted: for storage modulus (G'): frequency sweep, 1 % strain. The method, then: as §4, §3, §5
Figure 3 Rheological properties of peptide hydrogel.

Series [10] can be described thus: TEM and AFM of nanofibers. It counts as physicochemical. To be noted: 0.05 % (w/v); for fiber morphology: TEM. As for the experimental part: Transmission electron microscopy (TEM) was used to observe the microstructure of peptides with a Hitachi HT7700 (120 kV) Bio-TEM. The 0.05 % (w/v) RADA16-QLK before and after microbial transglutaminase (mTG) crosslinking were prepared at pH 7. The TEM samples were prepared by dropping 10 μL of peptide solution on the copper grid coated with carbon film and stained with 2 % phosphotungstic acid solution. The morphology of the peptide scaffolds was captured using atomic force microscopy (AFM) (DI Dimension 3100, Veeco Instruments Inc, US) in dynamic force mode. In brief, 0.05 % (w/v) peptide solution was sprayed on the surface of a cleaved mica for 5 min, the surface was then washed with sterilized water for several times and blown dry by anhydrous nitrogen.
as §6

Turning to AcN-RADARADARADARADAGGLRKKLGKA-CONH, in series [1], the “HS binding (in words)” value is on record as “good HS binding consensus sequence”.
On to “HGF: Recombinant Human HGF (HEK293 derived); hepatocyte growth factor”, for which the “binding affinity with heparin or HS (in words)” value in [2] is “higher binding affinity with heparin or HS than VEGF”. Further, in [3] (28 days, ELISA), the “cumulative release, total” value is reported as “approximately 46%”. Besides, the “cumulative release, initial” value in [3] (day 3, ELISA) worked out at 25%. In [4], this substance came in with a loading efficiency of about 82.5 ± 2.1%. In addition, in the series with HUVECs, the “tube-like formation of HUVECs” value is “positive effect on tube-like formation of HUVECs”.
In the case of “AcN-RADARADARADARADAGGQQLK-NH2 [self-assembling peptide with transglutaminase-crosslinkable QQLK motif; forms hydrogel]”, the “total disintegration in PBS” value in series [5] (mTG-crosslinked (20 U/mL)) was “approximately 61%”; in [5] (non-crosslinked), about 82%. Besides, the figures for the “disintegration in PBS” value in series [5] (mTG-crosslinked (20 U/mL)) and in series [5] (non-crosslinked) were 20% and 40%, respectively. In series [6], the “shear thinning / shear recovery” value is “shear thinning and a potential shear recovery ability”. In addition, the “disintegration in cell culture medium vs PBS” value in series [7] is “degraded faster in the culture medium condition compared to that in PBS, especially in the group without crosslinking”. In addition, the “secondary structure by CD” value in [8] (4 °C overnight, ambient temperature, without mTG) is listed as “β-sheet secondary structure”; in series [8] (after mTG crosslinking) it was “β-sheet secondary structure”. For the same substance, the “CD negative maximum peak” value in series [8] (after mTG crosslinking) and in series [8] (without mTG) was 216 nm in each case. Besides, the “CD positive maximum peak” value in series [8] (after mTG crosslinking) and in series [8] (without mTG) was about 195 nm in each case. For the same substance, the “enhancement of stiffness / storage modulus by mTG” value in [9] (after vs before mTG, 25 °C) was “five-fold increase of storage modulus”. Moreover, the “storage modulus (G')” value was 5000 Pa in [9] (25 °C, after mTG crosslinking) and 1000 Pa in series [9] (25 °C, before mTG crosslinking). In addition, the “storage modulus (G') vs mTG concentration” value in series [9] (mTG 0 U/mL) stood at 1 kPa; in series [9] (mTG 5 U/mL), 1.5 kPa; in series [9] (mTG 10 U/mL), 3 kPa; in series [9] (mTG 20 U/mL), 5 kPa. The nanofiber diameter in series [10] (TEM and AFM, pH 7) is given as 10-20 nm. Further, the “pore size of fibrous network” value in series [10] (TEM and AFM, pH 7) was 10-200 nm. Also, the fiber morphology result in [10] (pH 7, after mTG (20 U/mL) crosslinking) is “more densely-compacted nanofibrous entanglements and more continuous self-assembling fibers”; in [10] (pH 7, before enzymatic crosslinking), “Sparsely-wired fiber entanglements”.
Turning to VEGF, the “tube-like formation of HUVECs” value in the series with HUVECs is reported as “positive effect on tube-like formation of HUVECs”.
